For one assay, the target named is p38/MK2 (Homo sapiens (Human), UniProt Q16539). Briefly: p38α/MK2 cascade assay (phosphorylation of Hsp27 peptide, Caliper LabChip 3000). The conditions noted are these: activated p38α 20 pM, His6-MK2 1 nM, Hsp27 peptide 1 μM, MgATP 10 μM; two values per cell. It counts as biochemical. As to the method:
P38 Inhibitory Potency and P38/MK2 Substrate Selectivity: The novel, MK2 substrate-selective inhibitory mechanism of compounds is evaluated in enzyme assays comparing inhibitor potency in blocking p38/MK2 versus p38/PRAK induced phosphorylation of an HSP-27 derived peptide substrate. The ability of compounds to inhibit activated phospho-p38α is evaluated using a p38α/MK2 and a p38α/PRAK cascade assay format. […] Activation of MK2 or PRAK by p38α is quantitated by measuring the phosphorylation of a fluorescently-labeled, MK2 specific peptide substrate, Hsp27 peptide ([…]). The phosphorylation of the Hsp27 peptide is quantified using the Caliper LabChip 3000. Kinase reactions is carried out in a 384-well plate (Matrical, MP101-1-PP) in 20 mM HEPES pH 7.5, 10 mM MgCl2, 0.0005% Tween-20, 0.01% BSA, 1 mM DTT, and 2% DMSO. […] The p38α compound inhibitory potency is quantitated from dose-response IC50 values or Ki values from p38α/MK2 cascade assays while the substrate selectivity is calculated as a ratio of p38α/PRAK:p38α/MK2 IC50 values. Species compounds of Formula (I), described hereinabove, evaluated in this assay, are expected to provide a therapeutic benefit in the treatment of p38 kinase mediated diseases, such as autoimmune diseases and lymphoma.

The next assay has as its target p38/PRAK (Homo sapiens (Human), UniProt Q16539). Briefly: p38α/PRAK cascade assay (phosphorylation of Hsp27 peptide, Caliper LabChip 3000). It counts as biochemical. The conditions noted are these: activated p38α 20 pM, GST-PRAK 1 nM, Hsp27 peptide 1 μM, MgATP 10 μM; two values per cell. As to the method: P38 Inhibitory Potency and P38/MK2 Substrate Selectivity: The novel, MK2 substrate-selective inhibitory mechanism of compounds is evaluated in enzyme assays comparing inhibitor potency in blocking p38/MK2 versus p38/PRAK induced phosphorylation of an HSP-27 derived peptide substrate. The ability of compounds to inhibit activated phospho-p38α is evaluated using a p38α/MK2 and a p38α/PRAK cascade assay format. The kinase activity of p38α is determined by its ability to phosphorylate GST-MK2 or GST-PRAK. Activation of MK2 or PRAK by p38α is quantitated by measuring the phosphorylation of a fluorescently-labeled, MK2 specific peptide substrate, Hsp27 peptide ([…]). The phosphorylation of the Hsp27 peptide is quantified using the Caliper LabChip 3000. Kinase reactions is carried out in a 384-well plate (Matrical, MP101-1-PP) in 20 mM HEPES pH 7.5, 10 mM MgCl2, 0.0005% Tween-20, 0.01% BSA, 1 mM DTT, and 2% DMSO. […] The p38α compound inhibitory potency is quantitated from dose-response IC50 values or Ki values from p38α/MK2 cascade assays while the substrate selectivity is calculated as a ratio of p38α/PRAK:p38α/MK2 IC50 values. Species compounds of Formula (I), described hereinabove, evaluated in this assay, are expected to provide a therapeutic benefit in the treatment of p38 kinase mediated diseases, such as autoimmune diseases and lymphoma.

The values below come from US9365546B2, “Substituted pyridinone-pyridinyl compounds” (CONFLUENCE LIFE SCIENCES INC., priority 2010, dated 2016).

Where “and” joins values, the source holds several entries; their conditions need not be identical. Equal entries are not always repeated.

Chain of p38/MK2 (Q16539 whole entry): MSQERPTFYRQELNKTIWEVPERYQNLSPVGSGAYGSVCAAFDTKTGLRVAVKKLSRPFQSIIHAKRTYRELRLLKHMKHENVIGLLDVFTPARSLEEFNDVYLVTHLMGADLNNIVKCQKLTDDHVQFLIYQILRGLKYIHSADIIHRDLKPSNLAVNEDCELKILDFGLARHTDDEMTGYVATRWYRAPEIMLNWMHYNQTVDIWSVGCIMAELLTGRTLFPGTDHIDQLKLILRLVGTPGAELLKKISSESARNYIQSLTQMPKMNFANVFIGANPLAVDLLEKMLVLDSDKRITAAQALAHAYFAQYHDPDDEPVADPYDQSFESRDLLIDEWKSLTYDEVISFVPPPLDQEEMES
Chain of p38/MK2 (P49137 whole entry partner): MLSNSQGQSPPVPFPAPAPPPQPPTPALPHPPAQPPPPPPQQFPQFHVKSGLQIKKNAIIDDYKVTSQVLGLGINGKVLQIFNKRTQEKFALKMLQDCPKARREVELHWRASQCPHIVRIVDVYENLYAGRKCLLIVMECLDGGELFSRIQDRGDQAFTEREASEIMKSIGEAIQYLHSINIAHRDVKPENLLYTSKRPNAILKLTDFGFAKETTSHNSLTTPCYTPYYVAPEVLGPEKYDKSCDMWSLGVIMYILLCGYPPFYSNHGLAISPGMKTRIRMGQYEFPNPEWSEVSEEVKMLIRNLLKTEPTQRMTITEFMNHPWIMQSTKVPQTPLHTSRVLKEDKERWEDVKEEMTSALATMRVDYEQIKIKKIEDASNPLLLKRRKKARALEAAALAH
Chain of p38/PRAK (Q16539 whole entry): as the sequence (Q16539 whole entry) above

As usually defined, the IC50 is the concentration at which inhibition is half-maximal. On to `Cc1cnc(-c2ccnc(C(C)(C)O)n2)cc1-n1c(C)cc(OCc2ccc(F)cc2F)c(Cl)c1=O` [Example 284, 3-chloro-4-((2,4-difluorobenzyl)oxy)-2′-(2-(2-hydroxypropan-2-yl)pyrimidin-4-yl)-5′,6-dimethyl-2H-[1,4′-bipyridin]-2-one], for which the IC50 was 0.0064 µM and 0.0073 µM against p38/MK2; 0.138 µM and 0.144 µM against p38/PRAK.
`Cc1cnc(-c2ccnc(C(C)(C)C)n2)cc1-n1c(C)cc(OCc2ccc(F)cc2F)c(Cl)c1=O` [Example 285, 2′-(2-(tert-butyl)pyrimidin-4-yl)-3-chloro-4-((2,4-difluorobenzyl)oxy)-5′,6-dimethyl-2H-[1,4′-bipyridin]-2-one]: the IC50 is 0.018 µM and 0.026 µM against p38/MK2; 0.121 µM and 0.21 µM at p38/PRAK.
